# Columns and labels:
# [1] = target: T1, Glucocorticoid receptor (Homo sapiens, UniProt P04150); details: hela s3; also: in other assays of this panel Not Active means under 50% inhibition at 10 µM
# T1 sequence (P04150 whole entry): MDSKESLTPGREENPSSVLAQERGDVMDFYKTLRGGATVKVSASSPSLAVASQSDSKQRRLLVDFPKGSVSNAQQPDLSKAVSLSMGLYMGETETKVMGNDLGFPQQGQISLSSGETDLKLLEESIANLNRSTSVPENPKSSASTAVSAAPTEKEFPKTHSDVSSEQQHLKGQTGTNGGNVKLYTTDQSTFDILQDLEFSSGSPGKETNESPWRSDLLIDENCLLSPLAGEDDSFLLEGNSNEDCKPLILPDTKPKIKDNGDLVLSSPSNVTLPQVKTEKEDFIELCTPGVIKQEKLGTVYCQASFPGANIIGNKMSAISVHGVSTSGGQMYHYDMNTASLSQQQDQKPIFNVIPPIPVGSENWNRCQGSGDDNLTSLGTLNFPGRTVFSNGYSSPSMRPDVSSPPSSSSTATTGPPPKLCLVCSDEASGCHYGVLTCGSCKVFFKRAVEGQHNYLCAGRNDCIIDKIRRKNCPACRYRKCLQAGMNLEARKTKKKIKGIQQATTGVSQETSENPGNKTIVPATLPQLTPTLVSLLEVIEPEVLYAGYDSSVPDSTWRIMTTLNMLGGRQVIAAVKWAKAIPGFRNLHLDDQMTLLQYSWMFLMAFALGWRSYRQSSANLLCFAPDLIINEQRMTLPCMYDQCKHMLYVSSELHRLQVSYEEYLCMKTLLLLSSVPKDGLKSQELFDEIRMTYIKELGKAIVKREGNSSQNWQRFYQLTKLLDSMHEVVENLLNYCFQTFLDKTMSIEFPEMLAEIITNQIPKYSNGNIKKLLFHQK
# [2] = DRUGMATRIX: Glutamate, NMDA, Agonism radioligand binding (ligand: [3H] CGP-39653); assay type: cell membranes, Rattus norvegicus, Wistar, Cerebral cortex, Membrane; details: Not Active = under 50% inhibition at 10 µM
# [3] = target: Tyrosine-protein kinase Fyn (Homo sapiens, UniProt P06241); test: biochemical; assay type: cell-based, Insect cells;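 also: enzymatic inhibition of Fyn kinase activity measured with Poly(Glu:Tyr) as the phosphorylation substrate; in other assays of this panel Not Active means under 50% inhibition at 10 µM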
# [4] = target: T2, C-X-C chemokine receptor type 2 (Homo sapiens, UniProt P25025); assay type: cell membranes, Membrane; details: cho-k1; also: in other assays of this panel Not Active means under 50% inhibition at 10 µM
# T2 sequence (P25025 whole entry): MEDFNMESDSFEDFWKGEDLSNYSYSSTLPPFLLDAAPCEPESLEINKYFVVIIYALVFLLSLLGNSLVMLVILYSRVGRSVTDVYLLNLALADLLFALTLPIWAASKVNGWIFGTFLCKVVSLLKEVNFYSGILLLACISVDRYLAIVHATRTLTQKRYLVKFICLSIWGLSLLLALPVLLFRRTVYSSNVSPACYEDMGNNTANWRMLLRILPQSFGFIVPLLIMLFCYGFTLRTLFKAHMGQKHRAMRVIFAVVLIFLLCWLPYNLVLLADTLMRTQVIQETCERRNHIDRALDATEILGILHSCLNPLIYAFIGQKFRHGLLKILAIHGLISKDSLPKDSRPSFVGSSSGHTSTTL
# [5] = target: T3, Neuropeptide Y receptor type 2 (Homo sapiens, UniProt P49146); assay type: cell membranes, KAN-TS, Membrane; also: in other assays of this panel Not Active means under 50% inhibition at 10 µM
# T3 sequence (P49146 whole entry): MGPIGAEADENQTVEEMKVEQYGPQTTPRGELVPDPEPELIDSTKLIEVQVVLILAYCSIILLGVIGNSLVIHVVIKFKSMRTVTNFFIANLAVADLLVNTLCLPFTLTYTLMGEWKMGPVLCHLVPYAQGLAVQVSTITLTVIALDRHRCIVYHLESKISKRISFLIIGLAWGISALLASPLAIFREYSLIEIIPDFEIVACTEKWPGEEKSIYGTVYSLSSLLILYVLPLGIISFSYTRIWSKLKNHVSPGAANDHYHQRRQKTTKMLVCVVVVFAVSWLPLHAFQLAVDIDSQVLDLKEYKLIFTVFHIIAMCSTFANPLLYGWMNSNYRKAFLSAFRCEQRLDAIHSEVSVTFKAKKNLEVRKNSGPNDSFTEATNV
# [6] = target: T4, Alpha-1A adrenergic receptor (Rattus norvegicus, UniProt P43140); test: DRUGMATRIX: Alpha-1A adrenergic receptor radioligand binding (ligand: prazosin); assay type: cell membranes, Wistar, Submaxillary gland, Membrane; details: Not Active = under 50% inhibition at 10 µM
# T4 sequence (P43140 whole entry): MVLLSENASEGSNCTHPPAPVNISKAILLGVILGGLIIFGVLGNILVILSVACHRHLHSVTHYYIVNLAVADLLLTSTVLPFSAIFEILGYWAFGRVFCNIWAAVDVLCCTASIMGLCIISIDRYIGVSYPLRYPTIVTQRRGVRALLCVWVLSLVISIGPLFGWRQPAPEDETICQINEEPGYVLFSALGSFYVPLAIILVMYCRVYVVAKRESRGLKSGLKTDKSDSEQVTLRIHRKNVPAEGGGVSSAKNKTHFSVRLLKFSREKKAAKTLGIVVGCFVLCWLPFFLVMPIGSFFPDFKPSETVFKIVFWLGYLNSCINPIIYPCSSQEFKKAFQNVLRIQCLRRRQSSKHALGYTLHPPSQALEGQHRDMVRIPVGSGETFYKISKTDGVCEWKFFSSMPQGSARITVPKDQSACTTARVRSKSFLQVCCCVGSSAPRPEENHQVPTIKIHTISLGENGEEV
# [7] = target: Cytochrome P450 3A4 (Homo sapiens, UniProt P08684); details: bti-tn-5b1-4; also: in other assays of this panel Not Active means under 50% inhibition at 10 µM
# Sequence of Cytochrome P450 3A4 (P08684 whole entry): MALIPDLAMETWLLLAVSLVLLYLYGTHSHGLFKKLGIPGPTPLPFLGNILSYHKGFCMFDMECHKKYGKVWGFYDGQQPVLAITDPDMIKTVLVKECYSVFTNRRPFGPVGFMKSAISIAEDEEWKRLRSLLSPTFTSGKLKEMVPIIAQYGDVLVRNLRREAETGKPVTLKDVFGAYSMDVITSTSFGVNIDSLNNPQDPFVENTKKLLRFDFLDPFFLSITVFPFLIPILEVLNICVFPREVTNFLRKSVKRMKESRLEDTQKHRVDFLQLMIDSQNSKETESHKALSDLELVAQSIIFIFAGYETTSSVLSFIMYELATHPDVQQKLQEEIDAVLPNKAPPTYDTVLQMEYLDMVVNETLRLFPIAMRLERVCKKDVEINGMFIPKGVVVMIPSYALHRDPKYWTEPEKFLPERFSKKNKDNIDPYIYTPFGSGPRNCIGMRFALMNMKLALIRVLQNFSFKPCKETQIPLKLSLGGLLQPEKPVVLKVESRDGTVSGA
# Sequence of Tyrosine-protein kinase Fyn (P06241 whole entry): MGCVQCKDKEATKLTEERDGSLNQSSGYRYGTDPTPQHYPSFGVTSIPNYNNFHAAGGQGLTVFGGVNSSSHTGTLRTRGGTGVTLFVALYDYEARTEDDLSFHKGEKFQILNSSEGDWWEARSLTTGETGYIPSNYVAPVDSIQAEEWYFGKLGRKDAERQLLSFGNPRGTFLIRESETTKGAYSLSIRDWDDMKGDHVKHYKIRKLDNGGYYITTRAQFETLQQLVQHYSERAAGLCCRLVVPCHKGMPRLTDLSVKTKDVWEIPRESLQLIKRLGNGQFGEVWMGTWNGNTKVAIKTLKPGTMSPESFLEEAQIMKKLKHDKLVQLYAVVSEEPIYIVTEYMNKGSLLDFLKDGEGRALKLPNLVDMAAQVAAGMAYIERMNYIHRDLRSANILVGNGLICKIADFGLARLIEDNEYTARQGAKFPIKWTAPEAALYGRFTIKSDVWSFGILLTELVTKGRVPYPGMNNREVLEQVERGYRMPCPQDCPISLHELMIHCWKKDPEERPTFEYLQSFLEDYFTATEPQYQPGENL
Structure (SMILES),IC50 [1],IC50 [2],Ki [2],IC50 ([3]; insect cells),IC50 [4],IC50 ([5]; kan-ts),IC50 [6],IC50 [7],Ki [7],IC50 ([3]; read-out: IC50) [µM],IC50 ([5]; read-out: IC50) [µM],Ki ([5]; read-out: Ki) [µM],IC50 ([6]; read-out: IC50) [µM],Ki ([6]; read-out: Ki) [µM]
COc1cc2nc(N3CCN(C(=O)C4CCCO4)CC3)nc(N)c2cc1OC (stereo unspecified) [TERAZOSIN],Not Active,Not Active,Not Active,Not Active,Not Active,Not Active,–,–,–,–,–,–,–,–
CO[C@H]1/C=C/O[C@@]2(C)Oc3c(C)c(O)c4c(O)c(c(/C=N/N5CCN(C6CCCC6)CC5)c(O)c4c3C2=O)NC(=O)/C(C)=C\C=C\[C@H](C)[C@H](O)[C@@H](C)[C@@H](O)[C@@H](C)[C@H](OC(C)=O)[C@@H]1C [RIFAPENTINE],Not Active,Not Active,Not Active,Not Active,Not Active,Not Active,Not Active,–,–,–,–,–,–,–
CC[C@@H](C(=O)[C@@H](C)[C@@H](O)[C@H](C)[C@@H]1O[C@@H]([C@@H](CC)C(=O)O)CC[C@@H]1C)[C@H]1O[C@]2(C=C[C@@H](O)[C@]3(CC[C@@](C)([C@H]4CC[C@](O)(CC)[C@H](C)O4)O3)O2)[C@H](C)C[C@@H]1C [SALINOMYCIN],–,Not Active,Not Active,Not Active,Not Active,Not Active,Not Active,Not Active,Not Active,–,–,–,–,–
CN(C)CCOC(c1ccccc1)c1ccccc1 [DIPHENHYDRAMINE],Not Active,–,–,Not Active,Not Active,Not Active,Not Active,–,–,–,–,–,–,–
CCCCNc1ccc(C(=O)OCCN(C)C)cc1 [TETRACAINE],Not Active,Not Active,Not Active,Not Active,Not Active,Not Active,Not Active,–,–,–,–,–,–,–
O.O.O.O.O.O.[Cl-].[Cl-].[Sr+2] [STRONTIUM CHLORIDE HEXAHYDRATE],–,Not Active,Not Active,Not Active,Not Active,Not Active,Not Active,Not Active,Not Active,–,–,–,–,–
CCN(CC)CC(=O)Nc1c(C)cccc1C [LIDOCAINE],Not Active,Not Active,Not Active,Not Active,Not Active,Not Active,Not Active,–,–,–,–,–,–,–
CNCCC(Oc1ccc(C(F)(F)F)cc1)c1ccccc1 (stereo unspecified) [FLUOXETINE],Not Active,–,–,Not Active,Not Active,Not Active,Not Active,Not Active,Not Active,–,–,–,–,–
Cc1c(C)c2c(c(C)c1O)CCC(C)(CN1CCN(c3cc(N4CCCC4)nc(N4CCCC4)n3)CC1)O2 (stereo unspecified),Not Active,Not Active,Not Active,–,Not Active,Not Active,Not Active,–,–,1.65,–,–,–,–
Cc1ccc(NC(=O)c2ccc(CN3CCN(C)CC3)cc2)cc1Nc1nccc(-c2cccnc2)n1 [IMATINIB],Not Active,–,–,–,Not Active,Not Active,Not Active,–,–,–,–,–,–,–
Clc1ccc(COC(Cn2ccnc2)c2ccc(Cl)cc2Cl)cc1 (stereo unspecified) [ECONAZOLE],Not Active,–,–,–,Not Active,–,–,–,–,12.1,20.1,11,21.2,8.57
Clc1ccccc1CN1CCc2sccc2C1 [TICLOPIDINE],–,Not Active,Not Active,Not Active,Not Active,Not Active,Not Active,Not Active,Not Active,–,–,–,–,–
